Consider 20 compounds from patent US20190282558A1, “Methods of Treating Zika Virus Infection” (Emergent Virology LLC, priority 2016, published 2019).

Structures are written as SMILES. Where two headings read alike, the source gives them in different places.

In general, CC50 refers to the concentration at which the toxic effect on the cells reaches its halfway point. A higher CC50 goes with lower toxicity to the cells. A word on the IC50: it is the point on the concentration scale where inhibition reaches its midpoint.

Format in all cases: cell-based
The nature of data set [1]: In vitro cell cytotoxicity (CellTiter-Glo) in Vero cells. The conditions noted are these: African green monkey, 3-5 days, max concentration 500 or 1000 μM, * = average of two values. For orientation: ATP-based viability assays read luminescence as a measure of living cells.
Data set [2] has as its system Zika virus, FSS 13025 strain (ZIKV, Cambodia 2010). The data set can be described thus: Yield reduction assay followed by plaque assay in Vero cells, ZIKV Cambodia 2010. The conditions noted are these: for IC50: Zika virus, 96 h, read-out: ZIKV, Cambodian 2010 IC50; for IC50 (summary in words): summary of Table 3. As to the method:
(§1) The iminosugar compounds set forth in Table 4, below, were evaluated for antiviral activity against Zika virus, FSS 13025 strain (ZIKV, Cambodia 2010) and PR ABC strain (ZIKV, PR2015) in an yield reduction assay followed by a plaque assay.
In the yield reduction assay, Vero cells were seeded in 24-well plates and incubated overnight. The next day, serial dilutions of a given compound were prepared at 300 μM, 100 μM, 30 μM, 10 μM, and 3.0 μM. Growth medium was removed from the cells and the serial dilutions of the given compound were added in duplicate for one hour. Zika virus, FSS 13025 strain (ZIKV, Cambodia 2010) was added at a multiplicity of infection (MOI) of 0.01 for one hour. Growth medium was added to 1 mL and the cells were incubated for 4 days. Thereafter, cell supernatants were harvested, cleared of cell debris by centrifugation, and stored at −80° C. until further analysis for viral content in a plaque assay.
Plaque assays were performed by seeding Vero cells in 24-well plates and allowing the cells to adhere overnight. The next day each of the harvested supernatants from the yield-reduction assay were serially diluted 10-fold, growth medium was removed from the cells, and the adhered cells were infected with the dilutions of the supernatants for 1 h. Methylcellulose was added and the cells were incubated for 3 days. Plaques were visualized by staining the cell monolayer with crystal violet. Relative inhibition was calculated using IDBS XLFIT analysis program.
(§2) The duplicate titers for virus-only (vehicle control) were averaged and used as 0% inhibition. Efficacy data for the compounds were reported as the mean of the duplicates, including the standard deviation (SD) and coefficient of variation (% CV). FIGS. 2A, 2B, 3A, 3B, 4A, 4B, 5A, 5B, 6A, 6B, 7A, 7B, 8A, 8B, 9A, 9B, 10A, 10B, 11A, 11B, 12A, 12B, 13A, 13B, 14A, 14B, and 15 show the in vitro inhibitory effect of the iminosugar compounds against Zika virus, FSS 13025 strain, as set forth in Table 3 below.

Data set [3] has as its system Zika virus, PR ABC strain (ZIKV, PR2015). The data set is described as follows: Yield reduction assay followed by plaque assay in Vero cells, ZIKV PR2015. The conditions noted are these: 120 h, read-out: ZIKV, PR2015 IC50. As to the method: as §1
In the yield reduction assay, Vero cells were seeded in 24-well plates and incubated overnight. The next day, serial dilutions of a given compound were prepared at 200 μM, 100 μM, 20 μM, 4 μM, 0.8 μM, 0.16 μM, 0.03 μM, and 0.01 μM. Growth medium was removed from the cells and the serial dilutions of the given compound were added in duplicate for one hour. Zika virus, PR ABC strain (ZIKV, PR2015) was added at a multiplicity of infection (MOI) of 0.01 for one hour. Growth medium was added to 1 mL and the cells were incubated for 5 days. Thereafter, cell supernatants were harvested, cleared of cell debris by centrifugation, and stored at −80° C. until further analysis for viral content in a plaque assay.
Plaque assays were performed by seeding Vero cells in 24-well plates and allowing the cells to adhere overnight. The next day each of the harvested supernatants from the yield-reduction assay were serially diluted 10-fold, growth medium was removed from the cells, and the adhered cells were infected with the dilutions of the supernatants for 1 h. The cells were incubated with 0.8% carboxymethyl cellulose (CMC) for 3 days. At the end of the incubation, CMC overlay was removed, and the cells were permeabilized with an 80%/20% (V/V) mixture of ethanol and methanol for 10 min at −20° C. Plaques were visualized by performing an immunostaining assay with monoclonal 4G2 (ATCC) which was detected by HRP-conjugated goat anti-mouse antibody and visualized using HRP-conjugated goat anti-mouse polyclonal antibodies. Relative inhibition was calculated using IDBS XLFIT analysis program.
as §2

The mark [4] stands for this setting: Vero cells, MOI 0.01, 4 days, plaque assay of supernatants, * = average of multiple data points.

For the compound `O=[N+]([O-])c1cc(-n2nccn2)ccc1NCCCCCCN1C[C@H](O)[C@@H](O)[C@H](O)[C@H]1CO` [Compound 3, (2R,3R,4R,5S)-2-(hydroxymethyl)-1-(6-((2-nitro-4-(2H-1,2,3-triazol-2-yl)phenyl)amino)hexyl)piperidine-3,4,5-triol], half-maximal cytotoxicity in data set [1] (CC50) was put at 245 µM. The IC50 in data set [2] (setting [4]) was determined as 106 µM.
As for `N/C(=N/O)c1ccc(NCCCCCCN2C[C@H](O)[C@@H](O)[C@H](O)[C@H]2CO)c([N+](=O)[O-])c1` [Compound 4, (E)-N′-hydroxy-3-nitro-4-((6-((2R,3R,4R,5S)-3,4,5-trihydroxy-2-(hydroxymethyl)piperidin-1-yl)hexyl)amino)benzimidamide], in data set [1], the CC50 was above 1000 µM. In addition, the IC50 in data set [2] (setting [4]) is 77.1 µM.
On to `O=[N+]([O-])c1cc(-n2cnnn2)ccc1NCCCCCCN1C[C@H](O)[C@@H](O)[C@H](O)[C@H]1CO` [Compound 5, (2R,3R,4R,5S)-2-(hydroxymethyl)-1-(6-((2-nitro-4-(1H-tetrazol-1-yl)phenyl)amino)hexyl)piperidine-3,4,5-triol], for which, in data set [1], the CC50 is above 1000 µM. The half-maximal inhibitory concentration (IC50) in data set [2] (setting [4]) amounted to 69.3 µM.
Compound `O=[N+]([O-])c1cc(-n2ncnn2)ccc1NCCCCCCN1C[C@H](O)[C@@H](O)[C@H](O)[C@H]1CO` [Compound 6, (2R,3R,4R,5S)-2-(hydroxymethyl)-1-(6-((2-nitro-4-(2H-tetrazol-2-yl)phenyl)amino)hexyl)piperidine-3,4,5-triol] came in with a half-maximal cytotoxic concentration (CC50) in data set [1] of 953 µM.
Regarding `O=[N+]([O-])c1cc(-c2ncccn2)ccc1NCCCCCCN1C[C@H](O)[C@@H](O)[C@H](O)[C@H]1CO` [Compound 7, (2R,3R,4R,5S)-2-(hydroxymethyl)-1-(6-((2-nitro-4-(pyrimidin-2-yl)phenyl)amino)hexyl)piperidine-3,4,5-triol], the CC50 in data set [1] is above 1000 µM. The concentration for half-maximal inhibition (IC50) in data set [2] (setting [4]) turned out to be 18.9 µM. For the same compound, the “IC50 (summary in words)” value in data set [2] is recorded as “low micromolar activity”.
For the compound `O=[N+]([O-])c1ccc(-n2cnnn2)cc1NCCCCCCN1C[C@H](O)[C@@H](O)[C@H](O)[C@H]1CO` [Compound 9, (2R,3R,4R,5S)-2-(hydroxymethyl)-1-(6-((2-nitro-5-(1H-tetrazol-1-yl)phenyl)amino)hexyl)piperidine-3,4,5-triol], the CC50 in data set [1] is above 1000 µM. The IC50 in data set [2] (setting [4]) was above 100 µM.
Taken in the same sequence, the figures for `O=[N+]([O-])c1ccc(N2CCNCC2)cc1NCCCCCCN1C[C@H](O)[C@@H](O)[C@H](O)[C@H]1CO` [Compound 10, (2R,3R,4R,5S)-2-(hydroxymethyl)-1-(6-((2-nitro-5-(piperazin-1-yl)phenyl)amino)hexyl)piperidine-3,4,5-triol] were above 1000 µM and above 100 µM.
For the compound `O=[N+]([O-])c1cc(NCCCCCCN2C[C@H](O)[C@@H](O)[C@H](O)[C@H]2CO)ccc1-n1cccn1` [Compound 13, (2R,3R,4R,5S)-2-(hydroxymethyl)-1-(6-((3-nitro-4-(1H-pyrazol-1-yl)phenyl)amino)hexyl)piperidine-3,4,5-triol], the CC50 in data set [1] is above 1000 µM. In addition, the IC50 in data set [2] (setting [4]) is above 100 µM.
On to `O=[N+]([O-])c1cc(NCCCCCCN2C[C@H](O)[C@@H](O)[C@H](O)[C@H]2CO)ccc1-n1cnnn1` [Compound 14, (2R,3R,4R,5S)-2-(hydroxymethyl)-1-(6-((3-nitro-4-(1H-tetrazol-1-yl)phenyl)amino)hexyl)piperidine-3,4,5-triol], for which the CC50 in data set [1] is above 1000 µM. In addition, the IC50 in data set [2] (setting [4]) is 88.5 µM.
The compound `CN(C)Cc1ccc([N+](=O)[O-])c(NCCCCCCN2C[C@H](O)[C@@H](O)[C@H](O)[C@H]2CO)c1` [Compound 16, (2R,3R,4R,5S)-1-(6-((5-((dimethylamino)methyl)-2-nitrophenyl)amino)hexyl)-2-(hydroxymethyl)piperidine-3,4,5-triol] returned a CC50 in data set [1] above 1000 µM. Further, the IC50 in data set [2] (setting [4]) is above 100 µM.
The compound `[N-]=[N+]=Nc1ccc(NCCCCN2C[C@H](O)[C@@H](O)[C@H](O)[C@H]2CO)c([N+](=O)[O-])c1` [Compound 17, (2R,3R,4R,5S)-1-(4-((4-azido-2-nitrophenyl)amino)butyl)-2-(hydroxymethyl)piperidine-3,4,5-triol] had a CC50 in data set [1] of 350 µM. In data set [2] (setting [4]), the IC50 is 30.4 µM. In data set [2], the “IC50 (summary in words)” value is reported as “low micromolar activity”.
The compound `OC[C@@H]1[C@@H](O)[C@H](O)[C@@H](O)CN1CCCCCCNc1c(F)cc(F)cc1F` [Compound 18, (2R,3R,4R,5S)-2-(hydroxymethyl)-1-(6-((2,4,6-trifluorophenyl)amino)hexyl)piperidine-3,4,5-triol trifluoroacetic acid] came in with a CC50 in data set [1] of 413 µM. Moreover, the IC50 in data set [2] (Vero) was above 100 µM.
`OC[C@@H]1[C@@H](O)[C@H](O)[C@@H](O)CN1CCCCCCNc1ccc(-n2ncnn2)cc1` [Compound 19, (2R,3R,4R,5S)-1-(6-((4-(2H-tetrazol-2-yl)phenyl)amino)hexyl)-2-(hydroxymethyl)piperidine-3,4,5-triol] registered a CC50 in data set [1] of 953 µM. The IC50 in data set [2] (setting [4]) is 140 µM.
`O=[N+]([O-])c1cc(CN2CCCO2)ccc1NCCCCCCN1C[C@H](O)[C@@H](O)[C@H](O)[C@H]1CO` [Compound 21, (2R,3R,4R,5S)-2-(hydroxymethyl)-1-(6-((4-(isoxazolidin-2-ylmethyl)-2-nitrophenyl)amino)hexyl)piperidine-3,4,5-triol] showed a 50% cytotoxic concentration (CC50) in data set [1] of 2130 µM. Moreover, the IC50 in data set [2] (setting [4]) was above 100 µM.
As for `O=[N+]([O-])c1cc(-c2ccccn2)ccc1NCCCCCCN1C[C@H](O)[C@@H](O)[C@H](O)[C@H]1CO` [Compound 22, (2R,3R,4R,5S)-2-(hydroxymethyl)-1-(6-((2-nitro-4-(pyridin-2-yl)phenyl)amino)hexyl)piperidine-3,4,5-triol], it took 99.8 µM to reach half-maximal cytotoxicity in data set [1] (CC50). In addition, the 50% inhibitory concentration (IC50) in data set [2] (setting [4]) was found to be 47 µM. The “IC50 (summary in words)” value in data set [2] is “low micromolar activity”.
Compound `O=[N+]([O-])c1cc(-c2cccnn2)ccc1NCCCCCCN1C[C@H](O)[C@@H](O)[C@H](O)[C@H]1CO` [Compound 23, (2R,3R,4R,5S)-2-(hydroxymethyl)-1-(6-((2-nitro-4-(pyridazin-3-yl)phenyl)amino)hexyl)piperidine-3,4,5-triol] yielded a CC50 in data set [1] of 5190 µM. Also, in data set [2] (setting [4]), the IC50 was above 100 µM.
The corresponding values for `O=[N+]([O-])c1cc(-c2ccncn2)ccc1NCCCCCCN1C[C@H](O)[C@@H](O)[C@H](O)[C@H]1CO` [Compound 24, (2R,3R,4R,5S)-2-(hydroxymethyl)-1-(6-((2-nitro-4-(pyrimidin-4-yl)phenyl)amino)hexyl)piperidine-3,4,5-triol] are 816 µM and above 100 µM.
In data set [1], `O=[N+]([O-])c1cc(-c2cccnc2)ccc1NCCCCCCN1C[C@H](O)[C@@H](O)[C@H](O)[C@H]1CO` [Compound 25, (2R,3R,4R,5S)-2-(hydroxymethyl)-1-(6-((2-nitro-4-(pyridin-3-yl)phenyl)amino)hexyl)piperidine-3,4,5-triol] had a CC50 of 101 µM. Besides, in data set [2] (setting [4]), the IC50 came to 17 µM. The “IC50 (summary in words)” value in data set [2] is “low micromolar activity”.
For the compound `CCCCN1C[C@H](O)[C@@H](O)[C@H](O)[C@H]1CO` [UV-1, (2R,3R,4R,5S)-1-butyl-2-(hydroxymethyl)piperidine-3,4,5-triol], the IC50 in data set [3] (Vero cells, MOI 0.01, 5 days, plaque assay with immunostaining, * = average of multiple data points) was found to be 3 µM.
On to `CCCCCCCCCN1C[C@H](O)[C@@H](O)[C@H](O)[C@H]1CO` [UV-2, (2R,3R,4R,5S)-2-(hydroxymethyl)-1-nonylpiperidine-3,4,5-triol], for which, in data set [3] (Vero), the half-maximal inhibitory concentration (IC50) was 95 µM.
